Molecular target: Hypoxanthine-guanine phosphoribosyltransferase (Trypanosoma cruzi)
Test: Inhibition of hypoxanthine-guanine phosphoribosyltransferase (TcHPRT)

CN(C)CCC(O)(P(=O)(O)O)P(=O)(O)O [hydrogen 3-(dimethylammonio)-1-hydroxy-1-(hydroxyphosphinato)propylphosphonate]
Ki: 126 µM

— BindingDB's records for doi:10.1016/j.bmcl.2004.06.042 (Universidad De Buenos Aires, 2004)
